Activity calls are given as the source filed them. No cut-off for these calls is given here.
Assays:
[1] = biological target: T1, Tyrosinase (Agaricus bisporus) (UniProt O42713); experiment: Non-competitive inhibition of mushroom tyrosinase using L-tyrosine as substrate by Lineweaver-Burk double reciprocal plot method
T1 sequence (whole entry): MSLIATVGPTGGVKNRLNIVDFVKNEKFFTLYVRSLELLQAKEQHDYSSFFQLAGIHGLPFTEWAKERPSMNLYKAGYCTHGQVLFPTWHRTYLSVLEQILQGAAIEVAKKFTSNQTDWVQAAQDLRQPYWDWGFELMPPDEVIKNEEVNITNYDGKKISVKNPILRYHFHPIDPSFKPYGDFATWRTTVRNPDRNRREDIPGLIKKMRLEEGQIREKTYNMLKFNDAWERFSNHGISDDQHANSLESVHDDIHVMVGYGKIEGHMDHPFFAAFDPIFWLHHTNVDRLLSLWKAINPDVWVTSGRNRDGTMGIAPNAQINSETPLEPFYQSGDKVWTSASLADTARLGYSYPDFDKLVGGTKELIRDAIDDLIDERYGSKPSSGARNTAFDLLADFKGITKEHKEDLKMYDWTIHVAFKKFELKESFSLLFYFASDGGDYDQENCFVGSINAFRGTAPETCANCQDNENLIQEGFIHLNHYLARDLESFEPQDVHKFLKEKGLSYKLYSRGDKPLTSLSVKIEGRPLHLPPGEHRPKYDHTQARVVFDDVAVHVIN

[2] = biological target: T1, Tyrosinase (Agaricus bisporus); experiment: Inhibition of mushroom tyrosinase using L-tyrosine as substrate at 100 uM by spectrophotometry relative to control
[3] = biological target: T1, Tyrosinase (Agaricus bisporus); experiment: Non-competitive inhibition of mushroom tyrosinase using L-DOPA as substrate by Lineweaver-Burk double reciprocal plot method
Tyrosinase [4] = biological target: T2, Tyrosinase (Agaricus bisporus, UniProt O42713); experiment: (§1) Inhibition of mushroom tyrosinase using L-tyrosine as substrate by spectrophotometry
T2 sequence (O42713 whole entry): T1 sequence (whole entry)

[5] = biological target: T1, Tyrosinase (Agaricus bisporus); experiment: as §1
Tyrosinase [6] = biological target: T2, Tyrosinase; experiment: (§2) Inhibition of mushroom tyrosinase using L-DOPA as substrate by spectrophotometry relative to control
[7] = biological target: T1, Tyrosinase (Agaricus bisporus); experiment: as §2
[8] = biological target: T1, Tyrosinase (Agaricus bisporus); experiment: Inhibition of mushroom tyrosinase using L-DOPA as substrate at 100 uM by spectrophotometry relative to control
[9] = biological target: T1, Tyrosinase (Agaricus bisporus); experiment: Inhibition of mushroom tyrosinase using L-tyrosine as substrate at 200 uM by spectrophotometry relative to control
[10] = biological target: T1, Tyrosinase (Agaricus bisporus); experiment: Inhibition of mushroom tyrosinase using L-DOPA as substrate at 200 uM by spectrophotometry relative to control

| SMILES | inhibition [1] | inhibition [2] | inhibition [3] | IC50 (Tyrosinase [4]) | inhibition [5] | IC50 (Tyrosinase [6]) | inhibition [7] | inhibition [8] | inhibition [9] | inhibition [10] |
| --- | --- | --- | --- | --- | --- | --- | --- | --- | --- | --- |
| CCCCCCCCCCCCNc1ccc(O)cc1 | Active | 23% | Active | > 200 µM | Dose-dependent effect | > 200 µM | Dose-dependent effect | 25% | 27% | 45% |
| CCCCCCCCCCNc1ccc(O)cc1 | Active | – | Active | 5.7 µM | Dose-dependent effect | 30.1 µM | Dose-dependent effect | – | – | – |

From ChEMBL document CHEMBL3351773, “Effect of p-aminophenols on tyrosinase activity” (Bioorg Med Chem, 2014)
